In ChEMBL document CHEMBL5385857, “Optimization and SAR research at the benzoxazole and tetrazole rings of JNJ4796 as new anti-influenza A virus agents, part 2” (Eur J Med Chem, 2023):
Active and inactive are the calls of the source. No cut-off for these calls is given here.

Legend:
[1] = Selectivity index, ratio of CC50 for MDCK cells to IC50 for influenza A virus infected in MDCK cells; type: toxicity, cell-based; details: dog, read-out: Ratio CC50/IC50
[2] = Cytotoxicity against MDCK cells; type: toxicity, cell-based, Canis lupus familiaris; details: dog
Influenza A virus [3] = assay: Antiviral activity against influenza A virus H1N1 infected in MDCK cells; type: functional, organism-based
[4] = AUC (0 to infinity) in Balb/c mouse at 25 mg/kg, po administered as single dose; type: ADME, organism-based; parameters: dose 25 mg/kg, route po; details: in vivo
[5] = Elimination half life in Balb/c mouse at 25 mg/kg, po administered as single dose; type: ADME, organism-based; details: in vivo, read-out: beta t1/2 (converted)
hERG (KCNH2) = hERG (KCNH2) (Homo sapiens, UniProt Q12809); assay: Inhibition of hERG at 10 uM relative to control; type: toxicity
[6] = Tmax in Balb/c mouse at 25 mg/kg, po administered as single dose; type: ADME, organism-based; details: in vivo
[7] = Cmax in Balb/c mouse at 25 mg/kg, po administered as single dose; type: ADME, organism-based; parameters: dose 25 mg/kg, route po; details: in vivo
Influenza A virus [8] = assay: Antiviral activity against Influenza A virus H3N2 subtype; type: functional, organism-based
[9] = system: Infectious bronchitis virus; assay: Antiviral activity against Infectious bronchitis virus; type: functional, organism-based
Influenza A virus [10] = assay: Antiviral activity against influenza A virus H1N1 A/Puerto Rico/8/1934 infected in Kunming mouse assessed as survival rate at 15 mg/kg, po administered with compound twice daily for 7 days followed by viral infection on day 2 and measured for 14 days relative to control; type: functional; details: H1N1 A/Puerto Rico/8/1934, 336 h, time 14 day

Chain of hERG (KCNH2) (Q12809 whole entry): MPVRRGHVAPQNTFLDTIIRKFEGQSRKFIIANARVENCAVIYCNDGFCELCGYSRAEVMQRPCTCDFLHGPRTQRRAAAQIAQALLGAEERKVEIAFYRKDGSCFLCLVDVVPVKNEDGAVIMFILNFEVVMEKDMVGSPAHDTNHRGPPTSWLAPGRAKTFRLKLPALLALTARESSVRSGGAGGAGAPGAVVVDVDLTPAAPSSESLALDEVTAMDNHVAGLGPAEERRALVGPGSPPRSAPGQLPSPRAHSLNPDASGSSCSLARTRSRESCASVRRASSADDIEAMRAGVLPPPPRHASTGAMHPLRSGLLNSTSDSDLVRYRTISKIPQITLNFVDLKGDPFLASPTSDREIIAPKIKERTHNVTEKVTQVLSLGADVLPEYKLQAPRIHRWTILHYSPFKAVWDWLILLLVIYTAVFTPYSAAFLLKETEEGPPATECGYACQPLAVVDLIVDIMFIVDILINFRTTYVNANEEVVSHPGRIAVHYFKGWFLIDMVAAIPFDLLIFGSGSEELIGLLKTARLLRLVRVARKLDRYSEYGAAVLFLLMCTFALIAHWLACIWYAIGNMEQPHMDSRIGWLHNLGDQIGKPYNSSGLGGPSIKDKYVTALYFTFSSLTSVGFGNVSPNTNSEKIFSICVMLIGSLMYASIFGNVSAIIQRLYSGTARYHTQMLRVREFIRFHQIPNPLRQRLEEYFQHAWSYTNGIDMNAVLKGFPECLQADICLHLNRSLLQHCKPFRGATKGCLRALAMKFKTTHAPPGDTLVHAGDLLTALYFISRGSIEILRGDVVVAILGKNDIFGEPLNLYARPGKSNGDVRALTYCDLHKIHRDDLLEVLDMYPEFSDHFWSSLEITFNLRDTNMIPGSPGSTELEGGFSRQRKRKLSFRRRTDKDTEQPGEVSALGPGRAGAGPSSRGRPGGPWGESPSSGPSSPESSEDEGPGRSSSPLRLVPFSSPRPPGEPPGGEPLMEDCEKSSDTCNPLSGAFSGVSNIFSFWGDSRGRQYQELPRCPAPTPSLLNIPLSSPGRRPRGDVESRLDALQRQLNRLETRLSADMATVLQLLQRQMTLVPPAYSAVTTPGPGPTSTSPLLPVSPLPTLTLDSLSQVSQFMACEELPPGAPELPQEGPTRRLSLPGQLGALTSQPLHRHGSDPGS

Row | SMILES | selectivity ratio [1] | CC50 [2] [nM] | IC50 (Influenza A virus [3]) [nM] | other results
1 | CC(=O)Nc1ccc2oc(-c3ccnc(C(=O)N4CCN([C@H](c5ccc(F)cc5)c5nnn(CCC(C)C)n5)CC4)c3)nc2c1 | > 384 | > 100000 | 260 | 
2 | CC(=O)Nc1ccc2oc(-c3ccnc(C(=O)N4CCN(C(c5ccccc5)c5nnnn5C(C)C)CC4)c3)nc2c1 (stereo not drawn) |  | > 50000 | > 15000 | 
3 | CCCC(=O)Nc1ccc2oc(-c3ccnc(C(=O)N4CCN(C(c5ccc(F)cc5)c5nnn(C)n5)CC4)c3)nc2c1 (stereo not drawn) |  | > 50000 | 630 | 
4 | CC(=O)Nc1ccc2oc(-c3ccnc(C(=O)N4CCN(C(c5ccc(F)cc5)c5nnn(C6CCCC6)n5)CC4)c3)nc2c1 (stereo not drawn) |  | > 50000 | 260 | 
5 | CCC(=O)Nc1ccc2oc(-c3ccnc(C(=O)N4CCN(C(c5ccc(F)cc5)c5nnn(C)n5)CC4)c3)nc2c1 (stereo not drawn) |  | > 50000 | 450 | 
6 | CCn1nnc(C(c2ccc(F)cc2)N2CCN(C(=O)c3cc(-c4nc5cc(NC(C)=O)ccc5o4)ccn3)CC2)n1 (stereo not drawn) |  | > 50000 | 630 | 
7 | Cn1nnc(C(c2ccc(F)cc2)N2CCN(C(=O)c3cc(-c4nc5cc(NC(=O)c6ccco6)ccc5o4)ccn3)CC2)n1 (stereo not drawn) |  | 12800 | 220 | 
8 | Cn1nnc(C(c2ccc(F)cc2)N2CCN(C(=O)c3cc(-c4nc5cc(NC(=O)C6CCCO6)ccc5o4)ccn3)CC2)n1 (stereo not drawn) |  | > 50000 | 820 | 
9 | C=Cn1nnc([C@@H](c2ccc(F)cc2)N2CCN(C(=O)c3cc(-c4nc5cc(NC(C)=O)ccc5o4)ccn3)CC2)n1 | > 3330 | > 100000 | 30 | AUC(0-inf) [4]: 2100 ng·h/mL; half-life [5]: 94.2 min; inhibition at 10 µM (hERG (KCNH2)): 36.4%; Tmax [6]: 15 min; Cmax [7]: 2130 ng/mL
10 | CCCn1nnc(C(c2ccc(F)cc2)N2CCN(C(=O)c3cc(-c4nc5cc(NC(C)=O)ccc5o4)ccn3)CC2)n1 (stereo not drawn) |  | > 50000 | 630 | 
11 | CCC(CC)n1nnc(C(c2ccc(F)cc2)N2CCN(C(=O)c3cc(-c4nc5cc(NC(C)=O)ccc5o4)ccn3)CC2)n1 (stereo not drawn) |  | > 50000 | 360 | 
12 | C=Cn1nnc(C(c2ccc(F)cc2)N2CCN(C(=O)c3cc(-c4nc5cc(NC(C)=O)ccc5o4)ccn3)CC2)n1 (stereo not drawn) |  | > 50000 | 270 | 
13 | Cn1nnc(C(c2ccc(F)cc2)N2CCN(C(=O)c3cc(-c4nc5cc(NC(=O)C6CCCCC6)ccc5o4)ccn3)CC2)n1 (stereo not drawn) |  | 1430 | 820 | 
14 | CC(=O)Nc1ccc2oc(-c3ccnc(C(=O)N4CCN([C@@H](c5ccccc5)c5nnn(C(C)C)n5)CC4)c3)nc2c1 | > 120 | > 100000 | 830 | 
15 | Cn1nnc(C(c2ccc(F)cc2)N2CCN(C(=O)c3cc(-c4nc5cc(NC(=O)C6CCCC6)ccc5o4)ccn3)CC2)n1 (stereo not drawn) |  | 5140 | 630 | 
16 | CC(=O)Nc1ccc2oc(-c3ccnc(C(=O)N4CCN(C(c5ccc(F)cc5)c5nnn(CC6CCCCC6)n5)CC4)c3)nc2c1 (stereo not drawn) |  | 38500 | 360 | 
17 | CC(=O)Nc1ccc2oc(-c3ccnc(C(=O)N4CCN(C(c5ccc(F)cc5)c5nnn(C)n5)CC4)c3)nc2c1 (stereo not drawn) |  |  |  | Activity (Influenza A virus [8]): inactive; Activity [9]: inactive
18 | CC(=O)Nc1ccc2sc(-c3ccnc(C(=O)N4CCN(C(c5ccccc5)c5nnn(C(C)C)n5)CC4)c3)nc2c1 (stereo not drawn) |  | > 50000 | 1430 | 
19 | CCC(CC)n1nnc([C@H](c2ccc(F)cc2)N2CCN(C(=O)c3cc(-c4nc5cc(NC(C)=O)ccc5o4)ccn3)CC2)n1 | > 250 | > 100000 | 400 | 
20 | CC(=O)Nc1ccc2sc(-c3ccnc(C(=O)N4CCN(C(c5ccccc5)c5nnnn5C(C)C)CC4)c3)nc2c1 (stereo not drawn) |  | 38500 | > 15000 | 
21 | CC(=O)Nc1ccc2oc(-c3ccnc(C(=O)N4CCN(C(c5ccc(F)cc5)c5nnn(C6CCOCC6)n5)CC4)c3)nc2c1 (stereo not drawn) |  | > 50000 | 1080 | 

Row | SMILES | selectivity ratio [1] | CC50 [2] [nM] | IC50 (Influenza A virus [3]) [nM] | other results
22 | CC(=O)Nc1ccc2oc(-c3ccnc(C(=O)N4CCN([C@@H](c5ccc(F)cc5)c5nnn(C(C)C)n5)CC4)c3)nc2c1 | > 39 | > 100000 | 2560 | 
23 | CC(=O)Nc1ccc2oc(-c3ccnc(C(=O)N4CCN(C(c5ccccc5)c5nnn(C(C)C)n5)CC4)c3)nc2c1 (stereo not drawn) |  | > 50000 | 150 | 
24 | CC(=O)Nc1ccc2oc(-c3ccnc(C(=O)N4CCN(C(c5ccc(F)cc5)c5nnn(CCC6CCCCC6)n5)CC4)c3)nc2c1 (stereo not drawn) |  | > 50000 | 820 | 
25 | CC(=O)Nc1ccc2oc(-c3ccnc(C(=O)N4CCN(C(c5ccc(F)cc5)c5nnn(C6CC6)n5)CC4)c3)nc2c1 (stereo not drawn) |  | > 50000 | 1190 | 
26 | CC(=O)Nc1ccc2oc(-c3ccnc(C(=O)N4CCN(C(c5ccc(F)cc5)c5nnn(C6CCCCC6)n5)CC4)c3)nc2c1 (stereo not drawn) |  | > 50000 | 270 | 
27 | CCC(CC)n1nnc([C@@H](c2ccc(F)cc2)N2CCN(C(=O)c3cc(-c4nc5cc(NC(C)=O)ccc5o4)ccn3)CC2)n1 | > 1110 | > 100000 | 90 | 
28 | C=Cn1nnc([C@H](c2ccc(F)cc2)N2CCN(C(=O)c3cc(-c4nc5cc(NC(C)=O)ccc5o4)ccn3)CC2)n1 | > 34 | > 100000 | 2930 | 
29 | CC(=O)Nc1ccc2oc(-c3ccnc(C(=O)N4CCN([C@@H](c5ccc(F)cc5)c5nnn(C6CCCC6)n5)CC4)c3)nc2c1 | 188 | 96200 | 510 | 
30 | CC(=O)Nc1ccc2oc(-c3ccnc(C(=O)N4CCN([C@H](c5ccc(F)cc5)c5nnn(C6CCCC6)n5)CC4)c3)nc2c1 | 792 | 87200 | 110 | AUC(0-inf) [4]: 692 ng·h/mL; half-life [5]: 26.5 min; Tmax [6]: 15 min; Cmax [7]: 992 ng/mL
31 | CC(=O)Nc1ccc2oc(-c3ccnc(C(=O)N4CCN([C@@H](c5ccc(F)cc5)c5nnn(CCC(C)C)n5)CC4)c3)nc2c1 | > 39 | > 100000 | 2510 | 
32 | CC(=O)Nc1ccc2oc(-c3ccnc(C(=O)N4CCN([C@H](c5ccc(F)cc5)c5nnn(C(C)C)n5)CC4)c3)nc2c1 | > 3330 | > 100000 | 30 | AUC(0-inf) [4]: 2980 ng·h/mL; survival at 15 mg/kg (Influenza A virus [10]): 80%; half-life [5]: 75 min; inhibition at 10 µM (hERG (KCNH2)): 27.1%; Tmax [6]: 15 min; Cmax [7]: 3770 ng/mL
33 | CC(=O)Nc1ccc2oc(-c3ccnc(C(=O)N4CCN([C@H](c5ccccc5)c5nnn(C(C)C)n5)CC4)c3)nc2c1 | > 1000 | > 100000 | 100 | 
34 | COCCn1nnc(C(c2ccc(F)cc2)N2CCN(C(=O)c3cc(-c4nc5cc(NC(C)=O)ccc5o4)ccn3)CC2)n1 (stereo not drawn) |  | > 50000 | 2470 | 
35 | Cn1nnc(C(c2ccc(F)cc2)N2CCN(C(=O)c3cc(-c4nc5cc(NC(=O)C(C)(C)C)ccc5o4)ccn3)CC2)n1 (stereo not drawn) |  | 12800 | 350 | 
36 | CCCCn1nnc([C@@H](c2ccc(F)cc2)N2CCN(C(=O)c3cc(-c4nc5cc(NC(C)=O)ccc5o4)ccn3)CC2)n1 | > 714 | > 100000 | 140 | 
37 | CCC(CC)C(=O)Nc1ccc2oc(-c3ccnc(C(=O)N4CCN(C(c5ccc(F)cc5)c5nnn(C)n5)CC4)c3)nc2c1 (stereo not drawn) |  | 28600 | 360 | 
38 | Cn1nnc(C(c2ccc(F)cc2)N2CCN(C(=O)c3cc(-c4nc5cc(NC(=O)c6ccccc6)ccc5o4)ccn3)CC2)n1 (stereo not drawn) |  | 10700 | 630 | 
39 | CCCCn1nnc(C(c2ccc(F)cc2)N2CCN(C(=O)c3cc(-c4nc5cc(NC(C)=O)ccc5o4)ccn3)CC2)n1 (stereo not drawn) |  | > 50000 | 380 | 
40 | CCCCn1nnc([C@H](c2ccc(F)cc2)N2CCN(C(=O)c3cc(-c4nc5cc(NC(C)=O)ccc5o4)ccn3)CC2)n1 | > 83 | > 100000 | 1200 | 
41 | CC(=O)Nc1ccc2oc(-c3ccnc(C(=O)N4CCN(C(c5ccc(F)cc5)c5nnn(C(C)C)n5)CC4)c3)nc2c1 (stereo not drawn) |  | > 50000 | 220 | 
42 | CC(=O)Nc1ccc2oc(-c3ccnc(C(=O)N4CCN(C(c5ccc(F)cc5)c5nnn(CCC(C)C)n5)CC4)c3)nc2c1 (stereo not drawn) |  | > 50000 | 350 | 
